Data reported in paper PMC6515519, “Structure–Activity Relationships of the Tetrapeptide Ac-His-Arg-(pI)DPhe-Tic-NH2 at the Mouse Melanocortin Receptors: Modification at the (pI)DPhe Position Leads to mMC3R Versus mMC4R Selective Ligands” (Molecules, 2019).
“Also recorded” adds a separate entry of the source. Where two headings read alike, the source gives them in different places. Non-standard residues stand in square brackets, D forms with d. Residues, ends and D or L forms follow the SMILES beside them. dPhe(4-tBu) = CC(C)(C)c1ccc(C[C@@H](N)C(=O)O)cc1; dPhe(3,4-Cl2) = N[C@H](Cc1ccc(Cl)c(Cl)c1)C(=O)O; dPhe(4-CF3) = N[C@H](Cc1ccc(C(F)(F)F)cc1)C(=O)O; dPhe(4-CN) = N#Cc1ccc(C[C@@H](N)C(=O)O)cc1; dBip = N[C@H](Cc1ccc(-c2ccccc2)cc1)C(=O)O; dPhe(4-Br) = N[C@H](Cc1ccc(Br)cc1)C(=O)O; dPhe(4-Me) = Cc1ccc(C[C@@H](N)C(=O)O)cc1; dPhe(4-F) = N[C@H](Cc1ccc(F)cc1)C(=O)O; Tic = O=C(O)[C@@H]1Cc2ccccc2CN1

Experiments:
mMC4R [1] = biological target: T1, mMC4R (Mus musculus, UniProt P56450); assay: β-galactosidase cAMP reporter assay, agonist pharmacology in HEK293 cells stably expressing mMC4R; format: cell-based; settings: for mMC4R percent maximal stimulation relative to NDP-MSH (partial agonist): relative to maximal NDP-MSH signal; for mMC4R agonist activity: full agonist = >90% of maximal NDP-MSH signal, inactive = <20% at 100 µM
T1 construct: expressed in transfected cells
T1 sequence (P56450 whole entry): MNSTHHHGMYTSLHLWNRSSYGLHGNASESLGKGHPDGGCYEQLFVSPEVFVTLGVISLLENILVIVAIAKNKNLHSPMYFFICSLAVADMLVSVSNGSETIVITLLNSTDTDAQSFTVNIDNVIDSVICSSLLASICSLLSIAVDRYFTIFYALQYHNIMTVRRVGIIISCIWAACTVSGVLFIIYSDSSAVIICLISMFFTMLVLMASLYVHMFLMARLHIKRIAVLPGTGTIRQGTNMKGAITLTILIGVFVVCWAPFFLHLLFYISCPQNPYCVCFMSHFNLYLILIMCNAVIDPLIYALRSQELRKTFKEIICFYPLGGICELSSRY
Description: (§1) Peptides were synthesized manually with microwave irradiation using standard Fmoc synthesis techniques and purified using semi-preparative reverse-phase high-pressure liquid-chromatography (RP-HPLC). […] Agonist pharmacology was measured at the mMC3R, mMC4R, and mMC5R using a colorimetric β-galactosidase assay that measures cAMP production. Agonist pharmacology was assessed at the mMC1R using the Amplified Luminescent Proximity Homogenous Assay Screen (AlphaScreen, PerkinElmer), as previously described. The MC2R is only stimulated by ACTH, and was not examined in this study. For both assays, HEK293 cells stably expressing the mMCRs were used.
(§2) The peptide ligands were assessed for pharmacological activity at the mMC3R, mMC4R, and mMC5R using a β-galactosidase assay. Briefly, HEK293 cells stably expressing the MC3R, MC4R, or MC5R were plated into a 10 cm dish and grown to 40% confluency. The HEK293 cells were transfected with 4 µg of CRE/β-galactosidase using the calcium-phosphate method, as previously described. Cells (5000 to 15,000) were plated on collagen-treated Nunclon Delta Surface 96-well plates (Thermo Fisher Scientific) and incubated at 37 °C with 5% CO2. […] Plates were stored at −80 °C for up to two weeks.
(§3) Thawed plates were assessed for protein content and assayed for β-galactosidase activity. Relative protein concentration was determined by adding 10 µL of cell lysate to 200 µL of a 1:5 dilution of Bio Rad G250 protein dye in a 96-well plate.
(§4) The EC50 and pA2 values represent the mean of duplicate replicates performed in at least three independent experiments. The EC50 and pA2 values and their associated standard errors (SEM) were determined by fitting the data to a nonlinear least-squares analysis using the PRISM program (v4.0, GraphPad Inc., San Diego, CA, USA). The ligands were assayed as TFA salt and not corrected for peptide content.

mMC3R = biological target: T2, mMC3R (Mus musculus, UniProt P33033); assay: β-galactosidase cAMP reporter assay, agonist pharmacology in HEK293 cells stably expressing mMC3R; format: cell-based; settings: for decreased agonist potency at the mMC3R compared to KNS2-22-4: ratio of EC50 to KNS2-22-4; for EC50: β-galactosidase cAMP, HEK293, mean ± SEM, apparent EC50 for partial agonists; for agonist selectivity for the mMC3R over the mMC4R: mMC3R versus mMC4R agonist potency; for mMC3R percent maximal stimulation relative to NDP-MSH (partial agonist): relative to maximal NDP-MSH signal
T2 construct: expressed in transfected cells
T2 sequence (P33033 whole entry): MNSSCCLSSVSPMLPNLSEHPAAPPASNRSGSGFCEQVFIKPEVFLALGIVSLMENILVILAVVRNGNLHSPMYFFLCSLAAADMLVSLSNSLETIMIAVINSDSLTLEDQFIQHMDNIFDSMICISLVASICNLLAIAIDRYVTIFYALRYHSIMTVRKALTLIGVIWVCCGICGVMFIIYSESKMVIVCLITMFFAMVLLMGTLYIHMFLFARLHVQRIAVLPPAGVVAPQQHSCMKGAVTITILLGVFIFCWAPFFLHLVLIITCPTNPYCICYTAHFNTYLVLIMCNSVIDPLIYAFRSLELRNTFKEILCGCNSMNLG
Description: as §1, §2, §3, §4

mMC5R = biological target: T3, mMC5R (Mus musculus, UniProt P41149); assay: β-galactosidase cAMP reporter assay, agonist pharmacology in HEK293 cells stably expressing mMC5R; format: cell-based; settings: for decreased agonist potency at the mMC5R compared to KNS2-22-4: ratio of EC50 to KNS2-22-4; for EC50: β-galactosidase cAMP, HEK293, mean ± SEM, apparent EC50 for partial agonists
T3 construct: expressed in transfected cells
T3 sequence (P41149 whole entry): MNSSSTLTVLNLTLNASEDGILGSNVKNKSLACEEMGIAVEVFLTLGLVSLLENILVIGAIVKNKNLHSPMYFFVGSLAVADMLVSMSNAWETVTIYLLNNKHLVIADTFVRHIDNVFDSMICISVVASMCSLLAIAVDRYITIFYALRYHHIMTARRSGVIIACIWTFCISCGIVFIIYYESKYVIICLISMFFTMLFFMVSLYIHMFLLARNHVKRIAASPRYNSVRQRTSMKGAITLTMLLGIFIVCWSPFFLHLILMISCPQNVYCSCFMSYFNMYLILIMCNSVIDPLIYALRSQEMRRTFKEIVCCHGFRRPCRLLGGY
Description: as §1, §2, §3, §4

mMC1R = biological target: T4, mMC1R (Mus musculus, UniProt Q01727); assay: AlphaScreen cAMP assay, agonist pharmacology in HEK293 cells stably expressing mMC1R; format: cell-based; settings: for EC50: AlphaScreen cAMP, HEK293, mean ± SEM, at least three experiments; for potency increase at the mMC1R relative to Ac-His-DPhe-Arg-Trp-NH2: compared with KNS2-153; for decreased agonist potency at the mMC1R compared to KNS2-22-4: ratio of EC50 to KNS2-22-4
T4 construct: expressed in transfected cells
T4 sequence (Q01727 whole entry): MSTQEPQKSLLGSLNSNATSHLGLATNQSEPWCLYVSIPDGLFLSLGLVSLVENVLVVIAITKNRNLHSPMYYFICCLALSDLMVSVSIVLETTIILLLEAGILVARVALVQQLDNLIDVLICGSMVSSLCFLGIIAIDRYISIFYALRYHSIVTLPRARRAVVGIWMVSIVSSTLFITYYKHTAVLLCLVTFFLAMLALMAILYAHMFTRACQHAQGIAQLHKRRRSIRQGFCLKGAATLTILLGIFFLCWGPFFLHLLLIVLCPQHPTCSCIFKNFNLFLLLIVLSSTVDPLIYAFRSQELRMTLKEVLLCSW
Description: as §1
Peptide ligands were dissolved in DMSO at stock concentrations of 10^−2 M. To assess the pharmacological activity of the tetrapeptides at the mMC1R, HEK293 cells stably expressing the mMC1R were stimulated with the ligands using the cAMP AlphaScreen assay (PerkinElmer) according to the manufacturer’s instruction and as previously described.
Cells were dislodged with Versene (Gibco) at 37 °C, and 10,000 cells/well were plated in a 384-well plate (Optiplate) with freshly made stimulation buffer (Hank’s Balanced Salt Solution (HBSS, 1×), 0.5 mM 3-isobutyl-1-methylxanthine (IBMX), 5 mM HEPES, and 0.1% bovine serum albumin (BSA), pH = 7.4) with 0.5 μg anti-cAMP acceptor beads per well.
Plates were incubated for an additional 2 h in the dark. Post incubation, the plates were read by an EnSpire plate reader (PerkinElmer, Waltham, MA, USA).
as §4

mMC4R [2] = biological target: T1, mMC4R; assay: β-galactosidase cAMP reporter assay, antagonist Schild analysis with NDP-MSH as agonist; format: cell-based; settings: for mMC4R pA2: Schild analysis, <5.5 = no antagonist potency at highest range (10,000, 5000, 1000, 500 nM); for mMC4R pA2 / mMC4R antagonist activity: agonist NDP-MSH; for mMC4R antagonist activity: Schild design, in the concentrations assayed
Description: as §1, §2, §3, §4

MC3R = settings: previous studies; cited from earlier work
MC4R = settings: cited from earlier work
[3] = biological target: mouse melanocortin-4 receptor (mouse) (UniProt P56450)
Sequence of mouse melanocortin-4 receptor (mouse) (P56450 whole entry): as the sequence (P56450 whole entry) above

[4] = biological target: mouse melanocortin-5 receptor (mouse) (UniProt P41149)
Sequence of mouse melanocortin-5 receptor (mouse) (P41149 whole entry): as the sequence (P41149 whole entry) above

[5] = biological target: mouse melanocortin-3 receptor (mouse) (UniProt P33033)
Sequence of mouse melanocortin-3 receptor (mouse) (P33033 whole entry): as the sequence (P33033 whole entry) above

[6] = biological target: mouse melanocortin-1 receptor (mouse) (UniProt Q01727)
Sequence of mouse melanocortin-1 receptor (mouse) (Q01727 whole entry): as the sequence (Q01727 whole entry) above

Molecule | EC50 (mMC4R [1]) [nM] | mMC4R percent maximal stimulation relative to NDP-MSH (partial agonist) (mMC4R [1]) [% NDP] | decreased agonist potency at the mMC3R compared to KNS2-22-4 (mMC3R) [fold] | EC50 (mMC3R) [nM] | EC50 (mMC5R) [nM] | EC50 (mMC1R) [nM] | mMC4R pA2 (mMC4R [2]) | mMC3R percent maximal stimulation relative to NDP-MSH (partial agonist) (mMC3R) [% NDP] | Kb (mMC4R [2]) [nM] | decreased agonist potency at the mMC1R compared to KNS2-22-4 (mMC1R) [fold] | other results
CC(=O)N[C@@H](Cc1c[nH]cn1)C(=O)N[C@@H](CCCNC(=N)N)C(=O)N[C@H](Cc1ccc(F)cc1)C(=O)N1Cc2ccccc2C[C@H]1C(N)=O [KNS2-22-2, Ac-His-Arg-(pF)DPhe-Tic-NH2] (Ac-HR[dPhe(4-F)][Tic]-NH2) | 560 | 70 | 30 | 450 ± 70 | 70 ± 40 | 1.8 ± 0.7 |  |  |  |  | decreased agonist potency at the mMC5R compared to KNS2-22-4 (mMC5R): 14 fold
CC(=O)N[C@@H](Cc1c[nH]cn1)C(=O)N[C@@H](CCCNC(=N)N)C(=O)N[C@H](Cc1ccc(Br)cc1)C(=O)N1Cc2ccccc2C[C@H]1C(N)=O [KNS2-22-3, Ac-His-Arg-(pBr)DPhe-Tic-NH2] (Ac-HR[dPhe(4-Br)][Tic]-NH2) | 290 | 55 |  | 90 ± 20 | 9.7 ± 0.5 | 0.7 ± 0.3 |  |  |  |  | potency increase at the mMC1R relative to Ac-His-DPhe-Arg-Trp-NH2 (mMC1R): ≥ 10 fold
CC(=O)N[C@@H](Cc1c[nH]cn1)C(=O)N[C@@H](CCCNC(=N)N)C(=O)N[C@H](Cc1ccc(-c2ccccc2)cc1)C(=O)N1Cc2ccccc2C[C@H]1C(N)=O [KNS2-23-1, Ac-His-Arg-DBip-Tic-NH2] (Ac-HR[dBip][Tic]-NH2) | 1400 | 45 |  | 14 ± 2 | 7.6 ± 0.7 | 0.6 ± 0.1 | 5.9 ± 0.2 |  |  |  | agonist selectivity for the mMC3R over the mMC4R (mMC3R): at least 100 fold; potency increase at the mMC1R relative to Ac-His-DPhe-Arg-Trp-NH2 (mMC1R): ≥ 10 fold
CC(=O)N[C@@H](Cc1c[nH]cn1)C(=O)N[C@@H](CCCNC(=N)N)C(=O)N[C@H](Cc1ccc(C(C)(C)C)cc1)C(=O)N1Cc2ccccc2C[C@H]1C(N)=O [KNS2-23-3, Ac-His-Arg-(ptBu)DPhe-Tic-NH2] (Ac-HR[dPhe(4-tBu)][Tic]-NH2) | > 100000 | < 20 |  | 13 | 3.4 ± 0.3 | 9 ± 3 | 6.8 | 85 | 158 | 13 | agonist selectivity for the mMC3R over the mMC4R (mMC3R): at least 100 fold
CC(=O)N[C@@H](Cc1c[nH]cn1)C(=O)N[C@@H](CCCNC(=N)N)C(=O)N[C@H](Cc1ccc(Cl)c(Cl)c1)C(=O)N1Cc2ccccc2C[C@H]1C(N)=O [KNS2-23-4, Ac-His-Arg-(3,4-diCl)DPhe-Tic-NH2] (Ac-HR[dPhe(3,4-Cl2)][Tic]-NH2) | > 100000 |  | 30 | 400 ± 100 | 70 ± 7 | 5 ± 2 | 6.2 |  | 708 | 7 | mMC4R agonist activity (mMC4R [1]): did not result in stimulation; agonist selectivity for the mMC3R over the mMC4R (mMC3R): at least 100 fold; decreased agonist potency at the mMC5R compared to KNS2-22-4 (mMC5R): 14 fold
CC(=O)N[C@@H](Cc1c[nH]cn1)C(=O)N[C@@H](CCCNC(=N)N)C(=O)N[C@H](Cc1ccc(C(F)(F)F)cc1)C(=O)N1Cc2ccccc2C[C@H]1C(N)=O [KNS2-23-6, Ac-His-Arg-(pCF3)DPhe-Tic-NH2] (Ac-HR[dPhe(4-CF3)][Tic]-NH2) | 600 | 20 | 7 | 90 ± 30 | 13 ± 4 | 5 ± 1 | 6.5 |  | 316 | 7 | 
CC(=O)N[C@@H](Cc1c[nH]cn1)C(=O)N[C@@H](CCCNC(=N)N)C(=O)N[C@H](Cc1ccc(C)cc1)C(=O)N1Cc2ccccc2C[C@H]1C(N)=O [KNS2-23-7, Ac-His-Arg-(pMe)DPhe-Tic-NH2] (Ac-HR[dPhe(4-Me)][Tic]-NH2) | 700 | 50 | 8 | 110 ± 20 | 17 ± 4 | 1 ± 0.3 |  |  |  |  | potency increase at the mMC1R relative to Ac-His-DPhe-Arg-Trp-NH2 (mMC1R): ≥ 10 fold
CC(=O)N[C@@H](Cc1c[nH]cn1)C(=O)N[C@@H](CCCNC(=N)N)C(=O)N[C@H](Cc1ccc(C#N)cc1)C(=O)N1Cc2ccccc2C[C@H]1C(N)=O [KNS2-23-8, Ac-His-Arg-(pCN)DPhe-Tic-NH2] (Ac-HR[dPhe(4-CN)][Tic]-NH2) |  |  |  | 4000 | 500 ± 100 | 27 ± 6 |  | 75 | > 3160 |  | mMC4R antagonist activity (mMC4R [2]): did not result in antagonist activity
CC(=O)N[C@@H](Cc1c[nH]cn1)C(=O)N[C@@H](CCCNC(=N)N)C(=O)N[C@H](Cc1ccc(O)cc1)C(=O)N1Cc2ccccc2C[C@H]1C(N)=O [KNS2-23-9, Ac-His-Arg-DTyr-Tic-NH2] (Ac-HR[dY][Tic]-NH2) | > 100000 |  |  | 4200 | 1000 ± 500 | 40 ± 10 |  | 85 |  |  | mMC4R agonist activity (mMC4R [1]): did not possess agonist or antagonist activity; mMC4R antagonist activity (mMC4R [2]): did not possess agonist or antagonist activity; Kb (mMC4R [2]; read-out: mMC4R pA2 (converted)): > 3160 nM
CC(=O)N[C@@H](Cc1c[nH]cn1)C(=O)N[C@@H](CCCNC(=N)N)C(=O)N[C@H](Cc1ccccc1)C(=O)N1Cc2ccccc2C[C@H]1C(N)=O [KNS3-10, Ac-His-Arg-DPhe-Tic-NH2] (Ac-HR[dF][Tic]-NH2) | 3000 ± 2000 |  | 70 | 900 | 200 | 4.6 ± 0.4 |  | 85 |  | 6 | mMC4R agonist activity (mMC4R [1]): full agonist efficacy; also recorded: Full agonism; mMC5R agonist efficacy (mMC5R; full agonist = >90% of maximal NDP-MSH signal): not a full agonist; decreased agonist potency at the mMC5R compared to KNS2-22-4 (mMC5R): 5 fold; mMC5R percent maximal stimulation relative to NDP-MSH (partial agonist) (mMC5R; relative to maximal NDP-MSH signal): 65 % NDP
Ac-His-(pI)DPhe-Arg-Trp-NH2 |  |  |  |  |  |  |  |  |  |  | MC3R activity (MC3R): partial agonist with antagonist activity; MC4R agonist activity (MC4R; previous studies): full agonist
Ac-Val-Gln-(pI)DPhe-DTic-NH2 |  |  |  |  |  |  |  |  |  |  | MC4R efficacy relative to NDP-MSH (MC4R; partial stimulation, % efficacy of NDP-MSH): less than 50%
NDP-MSH (peptide) |  |  |  |  |  |  |  |  |  |  | agonist EC50, β-galactosidase cAMP reporter assay in HEK293 cells stably expressing mMC4R [3]: 0.32 nM; agonist EC50, β-galactosidase cAMP reporter assay in HEK293 cells stably expressing mMC5R [4]: 3.4 nM; agonist EC50, β-galactosidase cAMP reporter assay in HEK293 cells stably expressing mMC3R [5]: 0.52 nM; agonist EC50, cAMP AlphaScreen assay in HEK293 cells stably expressing mMC1R [6]: 0.009 nM
